17 compounds from US11952365B2, “Anti-viral compounds” (Aligos Therapeutics, Inc., priority 2020, dated 2024) can be followed below.

Where two headings read alike, the source gives them in different places.

Broadly, the EC50 is the concentration at which the effect is half-maximal. Broadly, the IC50 is the midpoint of a concentration-inhibition curve. In general, CC50 refers to the concentration giving 50% cytotoxicity. A low value points to greater toxicity to the cells.

For data set [1], the system named is human beta-coronavirus OC43. The data set can be described thus: microbe, parasite or virus in culture. It counts as cell-based. The settings on record: Betacoronavirus 1, OC43, HeLa, 144 h, OC43 in HeLa cells, 6 days at 33° C., read-out: EC50.
The next data set deals with HRV3C (Human rhinovirus 14, UniProt P03303). The data set can be described thus: HRV3C protease assay (duplex, SAMDI-MS). It counts as biochemical, HRV. The settings on record: HRV3C, 30 mins preincubation, read-out: HRV IC50. As for the experimental part: Protease assays were performed in 384-well low volume polypropylene microtiter plates at ambient temperature. For the duplex assay, 3CLpro and HRV3C was added using a Multidrop Combi (Thermo Scientific; Waltham, MA) and preincubated for 30 mins with small molecules. The reactions were initiated by the addition of the two peptide substrates. The reactions were incubated for 30 mins and quenched by the addition of 0.5% formic acid (final) with subsequent neutralization using 1% sodium bicarbonate (final). Internal standard peptides were added in 20 mM Hepes pH 8.0 for quantitation of the protease products. For SAMDI-MS analysis, 2 μL of each reaction mixture was transferred using a 384-channel automated liquid handler to SAMDI biochip arrays functionalized with a neutravidin-presenting self-assembled monolayer. The SAMDI arrays were incubated for 1 h in a humidified chamber to allow the specific immobilization of the biotinylated peptide substrates, cleaved products and internal standards. The samples were purified by washing the SAMDI arrays with deionized ultrafiltered water and dried with compressed air. A matrix comprising alpha-cyano cinnamic acid in 80% acetonitrile:20% aqueous ammonium citrate was applied in an automated format by dispensing 50 nL to each spot in the array. SAMDI-MS was performed using reflector-positive mode on an AB Sciex TOF-TOF 5800 System (AB Sciex, Framingham, MA) with 400 shots/spot analyzed in a random raster sampling. For data analysis, area under the curves (peaks) (AUCs) for the product and internal standard were calculated using the TOF/TOF Series Explorer (AB Sciex), and the amount of product formed was calculated using the equation (AUC product/AUC internal standard). The amount of product generated was calculated using the ratio of product area under the curve (AUC) divided by the AUC of the internal standard. Negative controls were pre-quenched with 0.5% formic acid final. Assay robustness was determined by Z-Factor. The IC50s were determined by fitting the curves using a four-parameter equation in Graphpad Prism 8.

The next data set concerns the target T1, human cathepsin L (Homo sapiens, UniProt P07711).
T1 construct: purchased R&D Systems
The data set can be described thus: cathepsin L assay. It counts as biochemical. The note with it: 10 pM human cathepsin L, Z-FR-AMC 2 μM, class symbols. As to the method: For the cathepsin L assay, 10 pM of human cathepsin L (R&D Systems; Minneapolis, MN) was preincubated for 30 mins with test compounds. Reactions were initiated by the addition of a peptide substrate Z-FR-AMC (final concentration 2 μM, Anaspec; Fremont, CA). Fluorescence was measured at 2-minute intervals for 30 mins using a 355/460 excitation/emission filter module on an Envision plate reader (Perkin Elmer; Waltham, MA). The IC50 values were calculated for each assay by fitting the curves using a four-parameter equation in GraphPad Prism.

A further data set concerns the target 3CLpro (Severe acute respiratory syndrome coronavirus 2, UniProt P0DTD1). Put plainly: SARS-CoV-2 3CLpro protease assay (duplex, SAMDI-MS). It counts as biochemical. Further details: For the duplex assay, 3CLpro and HRV3C was added. The settings on record: 3CLpro, 30 mins preincubation, class symbols; read-out: SARS-Cov-2 IC50.
Data set [2] is described as follows: Cytotoxicity plates without OC43 virus (cell-titer-glo). It counts as cell-based, human. The note with it: human; HeLa cells without OC43 virus, class symbols. As for the experimental part:
The human beta-coronavirus OC43 was purchased from ATCC (Manassas, VA) and propagated using HCT-8 human colorectal epithelial cells (ATCC). HeLa human cervical epithelial cells (ATCC) were used as susceptible host cell lines and were cultured using EMEM media, supplemented with 10% fetal bovine serum (FBS), 1% (v/v) penicillin/streptomycin (P/S), 1% (v/v) HEPES and 1% (v/v) Cellgro Glutagro™ supplement (all Corning, Manassas, VA) at 37° C. For the OC43 antiviral assay, 1.5×10^4 HeLa cells per well were plated in 100 μL complete media in white 96-well plates with clear bottoms at 37° C. for up to 24 h to facilitate attachment and allow cells to recover from seeding stresses. Next day, the cell culture medium was removed. Serially diluted compounds in 100 μL assay media (EMEM, 2% FBS, 1% P/S, 1% Cellgro Glutagro™ supplement, 1% HEPES) were added to the cells and incubated for 4H at 37° C. in a humidified 5% CO2 incubator. 100 μL of OC43 virus stock was diluted to a concentration known to produce optimal cytopathic effect, inducing 80-90% reduction in cell viability. 96-well plates were incubated for 6 (HeLa) days at 33° C.; each plate contains uninfected control wells as well as virus-infected wells that were not treated with compound. Cytotoxicity plates without the addition of OC43 virus were carried out in parallel. At the end of the incubation period, 100 μL cell culture supernatant was replaced with 100 μL cell-titer-glo reagent (Promega, Madison, WI) and incubated for at least 10 min at rt prior to measuring luminescence. Luminescence was measured on a Perkin Elmer (Waltham, MA) Envision plate reader. Antiviral % inhibition was calculated as follows: [(Compound treated cells infected sample)−(no compound infected control)]/[(Uninfected control)−(no compound infected control)]*100; Using GraphPad (San Diego, CA) prism software version 8.3.1, the antiviral dose-response plot was generated as a sigmoidal fit, log(inhibitor) vs response-variable slope (four parameters) model and the EC50 was calculated which is the predicted compound concentration corresponding to a 50% inhibition of the viral cytopathic effect.

For `COc1cccc2[nH]c(C(=O)N3C[C@H]4CCCC[C@H]4[C@@H]3C(=O)N[C@@H](C[C@@H]3CCCNC3=O)C(=O)COCc3ccccc3)cc12` (single isomer, unassigned) [Compound 59A_2], the EC50 in data set [1] (class symbols) was in the range of 1 to 10 µM. In addition, the results for the half-maximal inhibitory concentration (IC50) at HRV3C (bound), at human cathepsin L and at 3CLpro were more than 10 µM, not below 10 µM and 0.2 to 2 µM, respectively. In data set [2], this compound displayed a CC50 at 6 days of more than 10 µM.
Turning to `COc1cccc2[nH]c(C(=O)N3C[C@@H]4CCCC[C@@H]4[C@H]3C(=O)N[C@@H](C[C@@H]3CCCNC3=O)C(=O)CO)cc12` [Compound 59_1, (1S,3aR,7aS)—N—((S)-4-hydroxy-3-oxo-1-((S)-2-oxopiperidin-3-yl)butan-2-yl)-2-(4-methoxy-1H-indole-2-carbonyl)octahydro-1H-isoindole-1-carboxamide], in data set [1] (class symbols), the concentration for a half-maximal effect (EC50) is 0.1 to 1 µM. The IC50 on HRV3C (class symbols) is 2 to 20 µM; at human cathepsin L it was not below 10 µM; at 3CLpro, less than 0.02 µM. In data set [2], this compound showed a cytotoxic concentration (CC50) at 6 days of more than 10 µM.
As for `COc1cccc2[nH]c(C(=O)N3C[C@H]4CCCC[C@H]4[C@@H]3C(=O)N[C@@H](C[C@@H]3CCCNC3=O)C(=O)CO)cc12` [Compound 59_2, (1R,3aS,7aR)—N—((S)-4-hydroxy-3-oxo-1-((S)-2-oxopiperidin-3-yl)butan-2-yl)-2-(4-methoxy-1H-indole-2-carbonyl)octahydro-1H-isoindole-1-carboxamide], the 50% effective concentration (EC50) in data set [1] (class symbols) is 1 to 10 µM. Moreover, the IC50 on HRV3C (bound) is more than 10 µM; on human cathepsin L, not below 10 µM; on 3CLpro, 0.2 to 2 µM. The compound further displayed a CC50 at 6 days in data set [2] of more than 10 µM.
Take `COc1cccc2[nH]c(C(=O)N3CC4(C5CC5)CC3(C(=O)N[C@@H](C[C@@H]3CCNC3=O)C(=O)C(=O)NC3CC3)C4)cc12` [Compound 131]: in data set [1] (bound), the EC50 is more than 10 µM. The figures for the half-inhibitory concentration (IC50) on HRV3C (class symbols), at human cathepsin L and at 3CLpro were 0.02 to 0.2 µM, not below 10 µM and 0.02 to 0.2 µM, respectively. For the same compound, the CC50 at 6 days in data set [2] was more than 10 µM.
For the compound `N#C[C@H](C[C@@H]1CCNC1=O)NC(=O)[C@@H]1[C@H]2CCC[C@H]2CN1C(=O)c1cc2c(Cl)ccc(C(F)(F)F)c2[nH]1` [Compound 175], the concentration giving a half-maximal response (EC50) in data set [1] (class symbols) is 1 to 10 µM. Besides, the IC50 is more than 10 µM on HRV3C (bound), not below 10 µM against human cathepsin L and 0.2 to 2 µM on 3CLpro. The compound also yielded a CC50 at 6 days in data set [2] of more than 10 µM.
On to `COc1ccc(Cl)c2cc(C(=O)N3C[C@@H]4CCC[C@@H]4[C@H]3C(=O)N[C@@H](C[C@@H]3CCNC3=O)C(=O)CO)[nH]c12` [Compound 176], for which, in data set [1] (class symbols), the concentration for a half-maximal effect (EC50) fell in the range of 0.1 to 1 µM. Moreover, the results for the concentration for half-maximal inhibition (IC50) on HRV3C (bound), against human cathepsin L and at 3CLpro were more than 10 µM, not below 10 µM and 0.02 to 0.2 µM, respectively. The compound further returned a half-maximal cytotoxic concentration (CC50) at 6 days in data set [2] of more than 10 µM.
Consider `C#C[C@H](C[C@@H]1CCNC1=O)NC(=O)[C@@H]1[C@H]2CCC[C@H]2CN1C(=O)c1cc2c(Cl)ccc(Cl)c2[nH]1` [Compound 177, (1S,3aR,6aS)-2-(4,7-dichloro-1H-indole-2-carbonyl)-N-[(2S)-1-[(3S)-2-oxopyrrolidin-3-yl]but-3-yn-2-yl]-hexahydro-1H-cyclopenta[c]pyrrole-1-carboxamide], for which the concentration giving a half-maximal response (EC50) in data set [1] (bound) was more than 10 µM. Moreover, the IC50 at HRV3C (bound) is more than 10 µM; against human cathepsin L, not below 10 µM; at 3CLpro it was 2 to 20 µM. The compound further registered a CC50 at 6 days in data set [2] of more than 10 µM.
Consider `COc1cc(F)c(F)c2[nH]c(C(=O)N3C[C@@H]4CCC[C@@H]4[C@H]3C(=O)N[C@@H](C[C@@H]3CCNC3=O)C(=O)CO)cc12` [Compound 184, (1S,3aR,6aS)-2-(6,7-difluoro-4-methoxy-1H-indole-2-carbonyl)-N-[(2S)-4-hydroxy-3-oxo-1-[(3S)-2-oxopyrrolidin-3-yl]butan-2-yl]-hexahydro-1H-cyclopenta[c]pyrrole-1-carboxamide], for which the IC50 on HRV3C (class symbols) is 2 to 20 µM; on human cathepsin L it was not below 10 µM; at 3CLpro it was less than 0.02 µM.
`N#C[C@H](C[C@@H]1CCNC1=O)NC(=O)[C@@H]1[C@H]2CCC[C@H]2CN1C(=O)c1cc2c(OC3CC3)cc(Cl)cc2[nH]1` [Compound 185, (1S,3aR,6aS)-2-(6-chloro-4-cyclopropoxy-1H-indole-2-carbonyl)-N-[(1S)-1-cyano-2-[(3S)-2-oxopyrrolidin-3-yl]ethyl]-hexahydro-1H-cyclopenta[c]pyrrole-1-carboxamide]: the results for the half-inhibitory concentration (IC50) on HRV3C (bound), on human cathepsin L and at 3CLpro were more than 10 µM, not below 10 µM and 0.2 to 2 µM, respectively.
Regarding `N#C[C@H](C[C@@H]1CCNC1=O)NC(=O)[C@@H]1[C@H]2CCC[C@H]2CN1C(=O)c1nc2c(Cl)ccc(Cl)c2[nH]1` [Compound 186], the 50% inhibitory concentration (IC50) on HRV3C (bound) is more than 10 µM; at human cathepsin L, not below 10 µM; at 3CLpro, 0.2 to 2 µM.
Take `N#C[C@H](C[C@@H]1CCNC1=O)NC(=O)[C@@H]1[C@H]2CCC[C@H]2CN1C(=O)c1cc2c(Cl)cc(F)cc2[nH]1` [Compound 187]: the IC50 was more than 10 µM on HRV3C (bound), not below 10 µM on human cathepsin L and 0.2 to 2 µM at 3CLpro.
In the same order, the values of `N#C[C@H](C[C@@H]1CCNC1=O)NC(=O)[C@@H]1[C@H]2CCC[C@H]2CN1C(=O)c1cc2c(Cl)cc(Cl)cc2[nH]1` [Compound 188] are more than 10 µM, not below 10 µM and 0.2 to 2 µM.
Take `COc1ccc(F)c2[nH]c(C(=O)N3C[C@@H]4CCC[C@@H]4[C@H]3C(=O)N[C@H](C#N)C[C@@H]3CCNC3=O)cc12` [Compound 189]: the IC50 on HRV3C (bound) was more than 10 µM; on human cathepsin L, not below 10 µM; at 3CLpro it was 0.2 to 2 µM.
Turning to `N#C[C@H](C[C@@H]1CCNC1=O)NC(=O)[C@@H]1[C@H]2CCC[C@H]2CN1C(=O)c1cc2c(OC(F)F)cccc2[nH]1` [Compound 190], the IC50 at HRV3C (bound) is more than 10 µM; on human cathepsin L it was not below 10 µM; at 3CLpro it was 0.2 to 2 µM.
In the same order, the values of `COc1nccc2[nH]c(C(=O)N3C[C@@H]4CCC[C@@H]4[C@H]3C(=O)N[C@H](C#N)C[C@@H]3CCNC3=O)cc12` [Compound 191] are more than 10 µM, not below 10 µM and 0.2 to 2 µM.
In the same order, the values of `COc1cc(Cl)cc2[nH]c(C(=O)N3C[C@@H]4CCC[C@@H]4[C@H]3C(=O)N[C@H](C#N)C[C@@H]3CCNC3=O)cc12` [Compound 192] are more than 10 µM, not below 10 µM and 0.2 to 2 µM.
With `CCOC(=O)c1cc(C(=O)N2C[C@@H]3CCC[C@@H]3[C@H]2C(=O)N[C@H](C#N)C[C@@H]2CCNC2=O)[nH]c1C` [Compound 193], the concentration for half-maximal inhibition (IC50) at HRV3C (bound) was more than 10 µM; at human cathepsin L, not below 10 µM; on 3CLpro it was 0.2 to 2 µM.
